According to ChEMBL document CHEMBL3390836, “Mannich- and LedererManasse-based analogues of the natural product S-(+)-curcuphenol as cancer proliferation and migration inhibitors” (Medchemcomm, 2012):

Experiments:
[1] = system: T47D; assay: Cytotoxicity against human T47D cells assessed as cell growth at 10 uM after 48 hrs by SRB assay relative to control; format: functional; details: read-out: Activity
[2] = system: MDA-MB-231; assay: Cytotoxicity against human MDA-MB-231 cells assessed as cell growth at 10 uM after 48 hrs by SRB assay relative to control; format: functional; details: MDA-MB-231, 48 h, read-out: Activity
[3] = Cytotoxicity against human PC3 cells assessed as cell growth at 10 uM after 48 hrs by SRB assay relative to control; format: functional; details: PC-3, 48 h, read-out: Activity
[4] = system: MCF7; assay: Cytotoxicity against human MCF7 cells assessed as cell growth at 10 uM after 48 hrs by SRB assay relative to control; format: functional; details: MCF7, 48 h, read-out: Activity
[5] = system: TK-10; assay: Cytotoxicity against human TK10 cells assessed as cell growth at 10 uM after 48 hrs by SRB assay relative to control; format: functional; details: TK-10, 48 h, read-out: Activity
[6] = system: SN12C; assay: Cytotoxicity against human SN12C cells assessed as cell growth at 10 uM after 48 hrs by SRB assay relative to control; format: functional; details: read-out: Activity
[7] = system: ACHN; assay: Cytotoxicity against human ACHN cells assessed as cell growth at 10 uM after 48 hrs by SRB assay relative to control; format: functional; details: read-out: Activity
[8] = system: 786-0; assay: Cytotoxicity against human 786-0 cells assessed as cell growth at 10 uM after 48 hrs by SRB assay relative to control; format: functional; details: 786-0, 48 h, read-out: Activity
[9] = system: MDA-MB-231; assay: Cytotoxicity against human MDA-MB-231 cells assessed as growth inhibition after 24 hrs by MTT assay; format: cell-based; details: MDA-MB-231, 24 h
[10] = Cytotoxicity against human OVCAR3 cells assessed as cell growth at 10 uM after 48 hrs by SRB assay relative to control; format: functional; details: OVCAR-3, 48 h, read-out: Activity
[11] = system: IGROV-1; assay: Cytotoxicity against human IGROV1 cells assessed as cell growth at 10 uM after 48 hrs by SRB assay relative to control; format: functional; details: IGROV-1, 48 h, read-out: Activity
[12] = Cytotoxicity against human UACC62 cells assessed as cell growth at 10 uM after 48 hrs by SRB assay relative to control; format: functional; details: UACC-62, 48 h, read-out: Activity
[13] = Cytotoxicity against human UACC257 cells assessed as cell growth at 10 uM after 48 hrs by SRB assay relative to control; format: functional; details: UACC-257, 48 h, read-out: Activity
[14] = system: SK-MEL-28; assay: Cytotoxicity against human SK-MEL-28 cells assessed as cell growth at 10 uM after 48 hrs by SRB assay relative to control; format: functional; details: SK-MEL-28, 48 h, read-out: Activity
[15] = system: MDA-MB-435; assay: Cytotoxicity against human MDA-MB-435 cells assessed as cell growth at 10 uM after 48 hrs by SRB assay relative to control; format: functional; details: MDA-MB-435, 48 h, read-out: Activity
[16] = system: M14; assay: Cytotoxicity against human M14 cells assessed as cell growth at 10 uM after 48 hrs by SRB assay relative to control; format: functional; details: M14, 48 h, read-out: Activity
[17] = system: LOX IMVI; assay: Cytotoxicity against human LOXIMVI cells assessed as cell growth at 10 uM after 48 hrs by SRB assay relative to control; format: functional; details: read-out: Activity
[18] = system: SNB-75; assay: Cytotoxicity against human SNB75 cells assessed as cell growth at 10 uM after 48 hrs by SRB assay relative to control; format: functional; details: SNB-75, 48 h, read-out: Activity
[19] = system: SF-539; assay: Cytotoxicity against human SF539 cells assessed as cell growth at 10 uM after 48 hrs by SRB assay relative to control; format: functional; details: SF-539, 48 h, read-out: Activity
[20] = system: SNB-19; assay: Cytotoxicity against human SNB19 cells assessed as cell growth at 10 uM after 48 hrs by SRB assay relative to control; format: functional; details: SNB-19, 48 h, read-out: Activity
[21] = system: SF-295; assay: Cytotoxicity against human SF295 cells assessed as cell growth at 10 uM after 48 hrs by SRB assay relative to control; format: functional; details: SF-295, 48 h, read-out: Activity
[22] = system: KM12; assay: Cytotoxicity against human KM12 cells assessed as cell growth at 10 uM after 48 hrs by SRB assay relative to control; format: functional; details: KM12, 48 h, read-out: Activity
[23] = system: HT-29; assay: Cytotoxicity against human HT-29 cells assessed as cell growth at 10 uM after 48 hrs by SRB assay relative to control; format: functional; details: HT-29, 48 h, read-out: Activity
[24] = Cytotoxicity against human HCT15 cells assessed as cell growth at 10 uM after 48 hrs by SRB assay relative to control; format: functional; details: HCT-15, 48 h, read-out: Activity
[25] = system: HCC 2998; assay: Cytotoxicity against human HCC2998 cells assessed as cell growth at 10 uM after 48 hrs by SRB assay relative to control; format: functional; details: HCC 2998, 48 h, read-out: Activity
[26] = Cytotoxicity against human HCT116 cells assessed as cell growth at 10 uM after 48 hrs by SRB assay relative to control; format: functional; details: HCT-116, 48 h, read-out: Activity
[27] = system: NCI-H322M; assay: Cytotoxicity against human NCI-H322M cells assessed as cell growth at 10 uM after 48 hrs by SRB assay relative to control; format: functional; details: read-out: Activity
[28] = system: NCI-H460; assay: Cytotoxicity against human NCI-H460 cells assessed as cell growth at 10 uM after 48 hrs by SRB assay relative to control; format: functional; details: NCI-H460, 48 h, read-out: Activity
[29] = system: NCI-H23; assay: Cytotoxicity against human NCI-H23 cells assessed as cell growth at 10 uM after 48 hrs by SRB assay relative to control; format: functional; details: NCI-H23, 48 h, read-out: Activity
[30] = system: HOP-62; assay: Cytotoxicity against human HOP62 cells assessed as cell growth at 10 uM after 48 hrs by SRB assay relative to control; format: functional; details: HOP-62, 48 h, read-out: Activity
[31] = system: A549; assay: Cytotoxicity against human A549 cells assessed as cell growth at 10 uM after 48 hrs by SRB assay relative to control; format: functional; details: A549, 48 h, read-out: Activity
[32] = Cytotoxicity against human EKVX cells assessed as cell growth at 10 uM after 48 hrs by SRB assay relative to control; format: functional; details: read-out: Activity
[33] = system: RPMI-8226; assay: Cytotoxicity against human RPMI8226 cells assessed as cell growth at 10 uM after 48 hrs by SRB assay relative to control; format: functional; details: RPMI-8226, 48 h, read-out: Activity
[34] = system: K562; assay: Cytotoxicity against human K562 cells assessed as cell growth at 10 uM after 48 hrs by SRB assay relative to control; format: functional; details: K562, 48 h, read-out: Activity
[35] = system: CCRF-CEM; assay: Cytotoxicity against human CCRF-CEM cells assessed as cell growth at 10 uM after 48 hrs by SRB assay relative to control; format: functional; details: read-out: Activity
[36] = system: MDA-MB-231; assay: Antimigratory activity against human MDA-MB-231 cells after 24 hrs by wound-healing assay; format: functional, cell-based; details: MDA-MB-231, 24 h

**Q.** Which growth at 10 µM [1] does the source give for `COc1ccc(CCN2COc3c([C@@H](C)CCC=C(C)C)ccc(C)c3C2)cc1OC` here?
**A.** -64%

**Q.** What about the growth at 10 µM [2] of the same compound?
**A.** -3%

**Q.** And the growth at 10 µM [3]?
**A.** -25%

**Q.** What about the growth at 10 µM [4] of the same compound?
**A.** 4%

**Q.** And the growth at 10 µM [5]?
**A.** -26%

**Q.** What about the growth at 10 µM [6] of the same compound?
**A.** 15%

**Q.** And the growth at 10 µM [7]?
**A.** 41%

**Q.** What about the growth at 10 µM [8] of the same compound?
**A.** -59%

**Q.** What about the IC50 [9] of the same compound?
**A.** > 20 µM

**Q.** And the growth at 10 µM [10]?
**A.** 16%

**Q.** And the growth at 10 µM [11]?
**A.** -44%

**Q.** And the growth at 10 µM [12]?
**A.** 19%

**Q.** What about the growth at 10 µM [13] of the same compound?
**A.** 3%

**Q.** And the growth at 10 µM [14]?
**A.** -44%

**Q.** What about the growth at 10 µM [15] of the same compound?
**A.** 3%

**Q.** What about the growth at 10 µM [16] of the same compound?
**A.** -91%

**Q.** What about the growth at 10 µM [17] of the same compound?
**A.** -65%

**Q.** What about the growth at 10 µM [18] of the same compound?
**A.** 61%

**Q.** And the growth at 10 µM [19]?
**A.** 25%

**Q.** What about the growth at 10 µM [20] of the same compound?
**A.** 67%

**Q.** And the growth at 10 µM [21]?
**A.** -18%

**Q.** And the growth at 10 µM [22]?
**A.** -2%

**Q.** What about the growth at 10 µM [23] of the same compound?
**A.** -29%

**Q.** And the growth at 10 µM [24]?
**A.** 2%

**Q.** And the growth at 10 µM [25]?
**A.** -99%

**Q.** And the growth at 10 µM [26]?
**A.** -43%

**Q.** And the growth at 10 µM [27]?
**A.** 5%

**Q.** What about the growth at 10 µM [28] of the same compound?
**A.** -58%

**Q.** What about the growth at 10 µM [29] of the same compound?
**A.** -29%

**Q.** What about the growth at 10 µM [30] of the same compound?
**A.** -76%

**Q.** And the growth at 10 µM [31]?
**A.** 51%

**Q.** And the growth at 10 µM [32]?
**A.** 33%

**Q.** And the growth at 10 µM [33]?
**A.** -10%

**Q.** And the growth at 10 µM [34]?
**A.** 13.1%

**Q.** And the growth at 10 µM [35]?
**A.** 14%

**Q.** And the IC50 [36]?
**A.** 9.5 µM

**Q.** For `CC(C)=CCC[C@H](C)c1ccc(C)c(CNCCCCC(=O)O)c1O`, which growth at 10 µM [1] is on record?
**A.** 113%

**Q.** And the growth at 10 µM [2]?
**A.** 97.6%

**Q.** And the growth at 10 µM [3]?
**A.** 98%

**Q.** What about the growth at 10 µM [4] of the same compound?
**A.** 101%

**Q.** And the growth at 10 µM [5]?
**A.** 105%

**Q.** What about the growth at 10 µM [6] of the same compound?
**A.** 102%

**Q.** What about the growth at 10 µM [7] of the same compound?
**A.** 102%

**Q.** What about the growth at 10 µM [8] of the same compound?
**A.** 100%

**Q.** And the IC50 [9]?
**A.** > 20 µM

**Q.** What about the growth at 10 µM [10] of the same compound?
**A.** 108%

**Q.** What about the growth at 10 µM [11] of the same compound?
**A.** 105%

**Q.** And the growth at 10 µM [12]?
**A.** 92.3%

**Q.** What about the growth at 10 µM [13] of the same compound?
**A.** 101%

**Q.** And the growth at 10 µM [14]?
**A.** 109%

**Q.** And the growth at 10 µM [15]?
**A.** 96.1%

**Q.** And the growth at 10 µM [16]?
**A.** 113%

**Q.** What about the growth at 10 µM [17] of the same compound?
**A.** 95%

**Q.** What about the growth at 10 µM [18] of the same compound?
**A.** 95.4%

**Q.** What about the growth at 10 µM [19] of the same compound?
**A.** 111%

**Q.** And the growth at 10 µM [20]?
**A.** 103%

**Q.** And the growth at 10 µM [21]?
**A.** 101%

**Q.** What about the growth at 10 µM [22] of the same compound?
**A.** 102%

**Q.** And the growth at 10 µM [23]?
**A.** 101%

**Q.** And the growth at 10 µM [24]?
**A.** 105%

**Q.** And the growth at 10 µM [25]?
**A.** 101%

**Q.** And the growth at 10 µM [26]?
**A.** 101%

**Q.** And the growth at 10 µM [27]?
**A.** 111%

**Q.** What about the growth at 10 µM [28] of the same compound?
**A.** 105%

**Q.** And the growth at 10 µM [29]?
**A.** 98.8%

**Q.** And the growth at 10 µM [30]?
**A.** 106%

**Q.** What about the growth at 10 µM [31] of the same compound?
**A.** 95.8%

**Q.** What about the growth at 10 µM [32] of the same compound?
**A.** 97.9%

**Q.** And the growth at 10 µM [33]?
**A.** 95.1%

**Q.** And the growth at 10 µM [34]?
**A.** 96.1%

**Q.** And the growth at 10 µM [35]?
**A.** 97.9%

**Q.** What about the IC50 [36] of the same compound?
**A.** > 20 µM
